In patent US11504349B2, “Composition for preventing or treating TNF-related diseases, containing novel derivative as active ingredient, and method for inhibiting TNF activity by using same” (ILAB, priority 2017, dated 2022):

What was measured:
etanercept = etanercept (Homo sapiens, UniProt P20333); assay: SPR binding to etanercept; settings: FIG. 2c
NF-kB p65 = assay: Western blot: TNF-induced NF-kB p65 nuclear migration in LM cells; format: cell-based, mouse; settings: TNF 50 ng/ml, 1 hour, compound at about 25 μM
Protocol: First, LM cells was treated with TNF alone (50 ng/ml) or a mixture of TNF and the compound of Example 61 (0, 10, 25, 50 μM) for 1 hour, and then the cells were washed and prepared. After the cytoplasmic fraction and nuclear fraction were separated/obtained using NE-PER nuclear and cytoplasmic extraction reagents (Thermo Scientific, cat #78833), NF-kB p65 protein was detected by SDS-PAGE and Western Blot. Anti-NF-κB p65 rabbit monoclonal antibody (Cell Signaling Technology, cat #D14E12) was used as a primary antibody, and goat anti-rabbit HRP-conjugated antibody (Invitrogen, cat #656120) was used as a secondary antibody. As a Western Blot control protein (housekeeping protein), GAPDH was used in the cytoplasmic fraction, and Lamin B1 was used in the nuclear fraction. Anti-GAPDH mouse monoclonal antibody (GenScript, cat #A01622) was used as a primary antibody of GAPDH, and goat anti-mouse HRP-conjugated antibody (BETHYLlaboratories, cat #A90-116P) was used as a secondary antibody. Anti-Lamin-B1 rabbit monoclonal antibody (Cell Signaling Technology, cat #12586S) was used as a primary antibody of Lamin B1, and anti-rabbit HRP-conjugated antibody (Invitrogen, cat #656120) was used as a secondary antibody.

TNF-overexpressing mice = assay: Therapeutic effect on rheumatoid arthritis, TNF-overexpressing mouse model; format: in vivo
Protocol: First, until the mean level of arthritis of TNF-overexpres sing mice reached 8, the mice were raised. As such, etanercept (4.5 mpk), adalimumab (1.2 mpk), the compound of Example 61 (25 mpk, 50 mpk, or 100 mpk) were orally administered to the mice with rheumatoid arthritis from Week 15 to Week 23, three times a week, and the pathology was measured and recorded from Week 7 to Week 23 (N=5 to 6/group, *P<0.01, **P<0.005, ***P<0.001).

DBA/1 mice = assay: CIA mouse model, alone and in combination with methotrexate; format: in vivo; settings: Example 61 10 mpk PO once a day, MTX 5 mpk three times a week, to Day 73
Source text: A 1:1 mixture of collagen type 2 and CFA was intradermally (ID) injected into the base of the tail of DBA/1 mice. Two weeks after the primary immunization, a 1:1 mixture of bovine collagen type 2 and IFA (incomplete Freund's adjuvant) was intradermally (ID) injected into the base of the tail to prepare the rheumatoid arthritis animal model. The thus prepared mice were divided into […], i.e., a positive control group (MTX 5 mpk treated group: 10 mice), a group treated with the compound of Example 61 alone (10 mpk treated group: 9 mice), a group treated with MTX and the compound of Example 61 (each 5 mpk and 10 mpk; 9 mice), and a group treated with vehicle (a group treated with 0.05% CMC diluted in distilled water; 15 mice). […]
The severity of arthritis was determined by ascertaining the mean score of arthritis according to the following standard score in the forefoot and hindfoot twice a week from Day 0 to Day 73 after the primary immunization: 0=normal foot, 1=inflammation and swelling of one toe, 2=inflammation and swelling of more than one toe, but not all of the toes have inflammation and swelling, or weak swelling of all toes, 3=inflammation and swelling of all toes, and 4=severe inflammation and swelling or occlusion of foot.

Chain of etanercept (P20333 with tags, fused parts or gaps limits assumed): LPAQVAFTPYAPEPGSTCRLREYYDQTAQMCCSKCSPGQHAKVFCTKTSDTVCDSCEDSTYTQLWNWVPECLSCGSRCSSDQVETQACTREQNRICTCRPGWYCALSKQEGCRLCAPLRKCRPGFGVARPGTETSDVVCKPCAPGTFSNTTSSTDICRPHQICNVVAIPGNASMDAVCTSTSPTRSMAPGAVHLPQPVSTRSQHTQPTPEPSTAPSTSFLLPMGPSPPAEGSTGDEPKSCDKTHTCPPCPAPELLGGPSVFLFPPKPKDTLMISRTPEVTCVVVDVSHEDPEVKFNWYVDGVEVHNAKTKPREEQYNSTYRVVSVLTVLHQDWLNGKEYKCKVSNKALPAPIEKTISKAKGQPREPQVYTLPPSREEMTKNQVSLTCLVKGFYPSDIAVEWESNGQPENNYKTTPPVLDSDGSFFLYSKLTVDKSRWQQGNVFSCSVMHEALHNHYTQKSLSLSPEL

O=C(O)c1c(-c2cc(F)ccc2F)oc2cc(Cl)ccc2c1=O [Example 61, 2-(2,5-difluorophenyl)-3-carboxy-7-chloro-(4H)-4-benzopyranone]
binding to etanercept (etanercept): did not bind to etanercept | migration of NF-kB from the cytoplasm to the nucleus activated by TNF (NF-kB p65): almost completely inhibited | therapeutic effect on rheumatoid arthritis (pathology score) (TNF-overexpressing mice; 25, 50 and 100 mpk PO, three times a week, Week 15 to 23, vs negative control): remarkable therapeutic effect | effect in comparison with adalimumab and etanercept (TNF-overexpressing mice; 50 and 100 mpk PO, adalimumab 1.2 mpk, etanercept 4.5 mpk): non-inferior effect | therapeutic effect on arthritis (mean arthritis score) (DBA/1 mice): therapeutic effect on arthritis was shown
